Here are results for 3 compounds from patent US20030161902A1, “Increased lifespan formulation” (priority 2001, published 2003).

One data set concerns rodent. Particulars: rodent trials, dietary supplementation; cited from earlier work.
Data set [1] is described as follows: Antioxidant activity of mouse food and pine bark extract (Table 2). The class given is biochemical. As for the experimental part:
The experimental mice were fed ad libitum on Archer's mouse food pellets dosed with measured doses of pine bark extract manufactured as above. Preferably, the present composition is administered in a form selected from the group including: a tablet; a capsule; a suppository; an injection; a suspension; a drink; a tonic; a syrup; a powder; an ingredient in solid foods; an ingredient in liquid foods; and combinations thereof, all of which are considered equivalent. Most preferably, the composition is administered orally as a powder mixed with food. The antioxidant composition of the food was as follows (Table 2 below): […]

Another data set deals with mice. Particulars: cited from earlier work.

In the case of vitamin E, the “effect on mean survivorship and maximum life span” value in the data set on rodent is reported as “Increases in mean survivorship, but not maximum life span”.
With `O=C1O[C@H]([C@@H](O)CO)C(O)=C1O` [Vitamin C], in data set [1] (antioxidant composition of sample), the EC50 – broadly, the concentration that produces a half-maximal response – came to 3.79 µg/mL. For the same compound, the “RELATIVE ANTIOXIDANT ACTIVITY” value in data set [1] (relative to mouse pellet = 1) was 1.76. For the same compound, the “effect on mean survivorship and maximum life span” value in the data set with rodent is on record as “Increases in mean survivorship, but not maximum life span”.
With `OCCS` [2-mercaptoethanol], the “effect on maximum lifespan” value in the data set with mice (mice fed supplement) is “increase in maximum lifespan”. For the same compound, in the data set with mice (mouse, in vivo), the toxicity result is on record as “toxic”.
